Test results reported in article PMC11224357, “Green, facile synthesis and evaluation of unsymmetrical carbamide derivatives as antimicrobial and anticancer agents with mechanistic insights” (Scientific Reports, 2024).
≈ marks a conversion by molar mass, not a printed value.

Legend:
[1] = tested on: MCF-7 (human breast cancer); assay: MTT cytotoxicity assay; type: cell-based; details: Homo sapiens, MCF-7, 48 h; for IC50: MCF7, 48 h, MTT; for cytotoxicity at 100 µM: MCF7, single dose 100 µM, read-out: Cytotoxicity (%)
Description: The MTT 3-(4,5-dimethylthiazol-2-yl)-2,5-diphenyl-tetrazolium bromide (Bio Basic Canada Inc. Toronto, Canada) assay was used to assess cell viability. The procedures were carried out in a biosafety class II sterile laminar air flow cabinet (Baker, SG403INT; Sanford, ME, USA). […] Cells were seeded at a density of (10^4 cells/well) into 96-well micro titer polypropylene plates and left to adhere for 24 h. […] After 48 h of incubation, 40 µL of MTT salt ([…]) was applied to each well. […] Instead of the tested substances, the medium was applied to the untreated cells (negative control). […] The testing substance was dissolved in dimethylsulfoxide (DMSO), and its final concentration in the cells was less than 0.2%. The solvent concentration was the same for all medications and between the control and drug treatments at the same dilution.

[2] = tested on: HCT-116 (human colon cancer); assay: MTT cytotoxicity assay; type: cell-based; details: 48 h; for IC50: HCT-116, MTT; for cytotoxicity at 100 µM: HCT-116, single dose 100 µM, read-out: Cytotoxicity (%)
Description: (§1) The MTT 3-(4,5-dimethylthiazol-2-yl)-2,5-diphenyl-tetrazolium bromide (Bio Basic Canada Inc. Toronto, Canada) assay was used to assess cell viability. The procedures were carried out in a biosafety class II sterile laminar air flow cabinet (Baker, SG403INT; Sanford, ME, USA). […] Cells were seeded at a density of (10^4 cells/well) into 96-well micro titer polypropylene plates and left to adhere for 24 h. The media was aspirated and the test chemicals were given to the cells in a single dose of 100 µM in DMSO. After 48 h of incubation, 40 µL of MTT salt ([…]) was applied to each well. […] Instead of the tested substances, the medium was applied to the untreated cells (negative control). […] The testing substance was dissolved in dimethylsulfoxide (DMSO), and its final concentration in the cells was less than 0.2%. The solvent concentration was the same for all medications and between the control and drug treatments at the same dilution.

Staphylococcus aureus [3] = assay: Agar well diffusion; type: cell-based
Excerpt: (§2) The antimicrobial efficiency of the synthesized unsymmetrical carbamide derivatives was screened using standard clinical pathogens derived from Department of Microbiology and Immunology, Faculty of Medicine (Boys), Al-Azhar University. The tested microbial pathogens used in this study were as follows, two Gram-positive bacteria (Bacillus subtilis, Staphylococcus aureus), two Gram-negative bacteria (Pseudomonas aerginousea, klebsiella pneumoniae) and two fungi (Candida albicans, Aspergillus fumgitus). Before each antimicrobial examination, pre-activation of each microbial pathogen was implemented using specific growth conditions. […] Consequently, each tested pathogen justified its inoculum size based on Colony Forming Units (CFU) to be closed to […] during all antimicrobial tests.

Pseudomonas aeruginosa [4] = assay: Agar well diffusion; type: cell-based; details: 20 µg/mL, read-out: Inhibition Zone
Excerpt: as §2

Klebsiella pneumonia [5] = assay: Agar well diffusion; type: cell-based; details: Klebsiella pneumoniae; Klebsiella pneumonia; 20 µg/mL; read-out: Inhibition Zone
Excerpt: as §2

Bacillus subtilis [6] = assay: Agar well diffusion; type: cell-based; details: 20 µg/mL, read-out: Inhibition Zone
Excerpt: as §2

Aspergillus fumagitus [7] = assay: Agar well diffusion; type: cell-based; details: Aspergillus fumagitus; 20 µg/mL; read-out: Inhibition Zone
Excerpt: (§3) The antimicrobial efficiency of the synthesized unsymmetrical carbamide derivatives was screened using standard clinical pathogens derived from Department of Microbiology and Immunology, Faculty of Medicine (Boys), Al-Azhar University. The tested microbial pathogens used in this study were as follows, two Gram-positive bacteria (Bacillus subtilis, Staphylococcus aureus), two Gram-negative bacteria (Pseudomonas aerginousea, klebsiella pneumoniae) and two fungi (Candida albicans, Aspergillus fumgitus). Before each antimicrobial examination, pre-activation of each microbial pathogen was implemented using specific growth conditions. For bacterial ones, preinoculum was prepared using Nuitrent broth medium (Codalab, Spain) at 37 °C for 24 h. while the fungal pathogens were activated using Potato Dextrose broth (Codalab, Spain) at 28 °C for 48 h. Consequently, each tested pathogen justified its inoculum size based on Colony Forming Units (CFU) to be closed to […] during all antimicrobial tests.

Candida albicans [8] = assay: MIC by microdilution (CLSI); type: cell-based; details: read-out: Minimum inhibitory concentration (MIC)
Description: (§4) For this purpose, serial dilution of the potent compounds was carried out to obtain the desired concentrations (i.e. 10–400 µg/mL). In brief, a defined weight for each selected compound was dissolved in dimethylsulphoxide (DMSO) and used as a stock solution[29]. The determination of the MIC value for each targeted compound was known as the lowest concentration of each sample that yielded a minimum number of colony-forming units (CFU) compared to the untreated samples[28].

Aspergillus fumagitus [9] = assay: MIC by microdilution (CLSI); type: cell-based; details: read-out: Minimum inhibitory concentration (MIC)
Description: as §4

Candida albicans [10] = assay: Agar well diffusion; type: cell-based; details: 20 µg/mL, read-out: Inhibition Zone
Excerpt: as §3

Staphylococcus aureus [11] = assay: MIC by microdilution (CLSI); type: cell-based; details: read-out: Minimum inhibitory concentration (MIC)
Description: (§5) In brief, a defined weight for each selected compound was dissolved in dimethylsulphoxide (DMSO) and used as a stock solution[29].

Pseudomonas aeruginosa [12] = assay: MIC by microdilution (CLSI); type: cell-based; details: read-out: Minimum inhibitory concentration (MIC)
Description: as §5

Klebsiella pneumonia [13] = assay: MIC by microdilution (CLSI); type: cell-based; details: Klebsiella pneumoniae, read-out: Minimum inhibitory concentration (MIC)
Description: as §5

Bacillus subtilis [14] = assay: MIC by microdilution (CLSI); type: cell-based; details: read-out: Minimum inhibitory concentration (MIC)
Description: as §5

MTT cytotoxicity assay = type: cell-based, human; details: human, BJ-1 normal skin fibroblast cells, BJ-1 normal cells
Description: as §1

MCF-7 cells = assay: Annexin V-FITC/PI necrosis cell apoptosis assay; type: cell-based, human; details: % of population
Description: (§6) The levels of necrosis and apoptosis in cells were determined by CytoFLEX Flow Cytometer. A total of 1 × 10^6 cells were washed in 1 × DPBS, and then were centrifuged at 500 × ϲ for 5 min. 1 μL of annexin V-FITC solution and 5 μL of dissolved PI were added to 100 μL of the cell suspensions that kept on ice and were incubated for 15 min in the dark. Cells were then analyzed by the CytoFLEX Flow Cytometer (Beckman Coulter Life Sciences, USA) and the percentage of apoptotic cells was determined using CytExpert Software.

HCT-116 cells = assay: Annexin V-FITC/PI necrosis cell apoptosis assay; type: cell-based, human; details: % of population
Description: as §6

Row | SMILES | zone of inhibition at 20 µg/mL (Staphylococcus aureus [3]) [mm] | zone of inhibition at 20 µg/mL (Pseudomonas aeruginosa [4]) [mm] | zone of inhibition at 20 µg/mL (Klebsiella pneumonia [5]) [mm] | zone of inhibition at 20 µg/mL (Bacillus subtilis [6]) [mm] | zone of inhibition at 20 µg/mL (Aspergillus fumagitus [7]) [mm] | melting point [°C] | MIC (Candida albicans [8]) [µg/mL] | MIC (Aspergillus fumagitus [9]) [µg/mL] | zone of inhibition at 20 µg/mL (Candida albicans [10]) [mm] | further results
1 | COc1cccc2c1C(=O)c1c(O)c3c(c(O)c1C2=O)C[C@@](O)(C(=O)CO)C[C@@H]3O[C@H]1C[C@H](N)[C@H](O)[C@H](C)O1 [Doxorubicin, doxorubicin, reference compound] |  |  |  |  |  |  |  |  |  | IC50 [1]: 45 ± 0.123 µM; IC50 [2]: 65.1 ± 0.141 µM
2 | Cc1ccc(S(=O)(=O)NC(=O)N2CCCC2)cc1 [Compound 9, N-tosylpyrrolidine-1-carboxamide] | 4 | 2 | 2 | 6 | 2 | 228 to 230 |  |  |  | 
3 | OC(Cn1cncn1)(Cn1cncn1)c1ccc(F)cc1F [Fluconazole, reference compound] |  |  |  |  |  |  | > 400 | > 400 |  | 
4 | Cc1ccc(NC(=O)NC23CC4CC(CC(C4)C2)C3)cc1 [Compound 18, 1-(Adamantan-1-yl)-3-(p-tolyl)urea] |  |  |  | 2 | 3 | 180 to 182 |  |  | 2 | 
5 | Cc1ccc(S(=O)(=O)NC(=O)N2CCCCC2)cc1 [Compound 12, N-tosylpiperidine-1-carboxamide] | 3 |  | 3 |  |  | 232 to 235 |  |  | 2 | 
6 | O=C(Nc1ccccc1)NC12CC3CC(CC(C3)C1)C2 [Compound 23, 1-(Adamantan-1-yl)-3-phenylurea] | 2 |  | 2 | 3 |  |  |  |  | 3 | IC50 [1]: 68.6 ± 0.116 µM; cytotoxicity at 100 µM [1]: ≥ 51%
7 | Cc1ccc(S(=O)(=O)NC(=O)N2CCN(C)CC2)cc1 [Compound 11, 4-Methyl-N-tosylpiperazine-1-carboxamide] | 2 |  | 2 |  |  | 190 to 192 |  |  |  | 
8 | C[C@@H]1[C@H](O)[C@@H](C)/C=C/C=C/C=C/C=C/C=C/C=C/C=C/[C@H](O[C@@H]2O[C@H](C)[C@@H](O)[C@H](N)[C@@H]2O)C[C@@H]2O[C@](O)(C[C@@H](O)C[C@@H](O)[C@H](O)CC[C@@H](O)C[C@@H](O)CC(=O)O[C@H]1C)C[C@H](O)[C@H]2C(=O)O [Amphotericin B, reference compound] |  |  |  |  | 5 |  | 40 (≈ 43.3 µM) | 20 (≈ 21.6 µM) | 4 | 
9 | O=C(Nc1ccccc1)N1CCOCC1 [Compound 20, N-phenylmorpholine-4-carboxamide] |  | 3 | 4 | 2 | 2 |  |  |  | 3 | 
10 | Cc1ccc(NC(=O)N2CCCC2)cc1 [Compound 14, N-(p-tolyl)pyrrolidine-1-carboxamide] | 3 |  | 2 | 4 | 3 | 180 to 182 |  |  | 8 | 
11 | Cc1ccc(NC(=O)N2CCCCC2)cc1 [Compound 17, N-(p-tolyl)piperidine-1-carboxamide] | 2 | 3 | 3 | 5 | 3 | 230 to 232 | 20 (≈ 91.6 µM) | 20 (≈ 91.6 µM) | 2 | MIC (Staphylococcus aureus [11]): 80 µg/mL (≈ 366 µM); MIC (Pseudomonas aeruginosa [12]): 40 µg/mL (≈ 183 µM); MIC (Klebsiella pneumonia [13]): 80 µg/mL (≈ 366 µM); MIC (Bacillus subtilis [14]): 10 µg/mL (≈ 45.8 µM)
12 | O=C(Nc1ccccc1)N1CCCC1 [Compound 19, N-phenylpyrrolidine-1-carboxamide] | 2 | 2 | 4 | 2 | 3 | 233 to 235 | 10 (≈ 52.6 µM) | 40 (≈ 210 µM) | 4 | MIC (Staphylococcus aureus [11]): 160 µg/mL (≈ 841 µM); MIC (Pseudomonas aeruginosa [12]): 80 µg/mL (≈ 421 µM); MIC (Bacillus subtilis [14]): 80 µg/mL (≈ 421 µM)
13 | Cc1ccc(S(=O)(=O)NC(=O)N2CCOCC2)cc1 [Compound 10, N-tosylmorpholine-4-carboxamide] | 4 |  | 2 | 2 | 2 | 210 to 211 |  |  |  | cytotoxicity at 48 h, 100 µM (MTT cytotoxicity assay): 19.7%; IC50 [2]: 72.6 ± 0.13 µM; cytotoxicity at 100 µM [2]: ≥ 65%
14 | Cc1ccc(NC(=O)N2CCN(C)CC2)cc1 [Compound 16, 4-Methyl-N-(p-tolyl)piperazine-1-carboxamide] | 2 | 3 | 5 | 2 | 3 | 252 to 253 | 10 (≈ 42.9 µM) | 80 (≈ 343 µM) | 5 | MIC (Staphylococcus aureus [11]): 320 µg/mL (≈ 1370 µM); MIC (Pseudomonas aeruginosa [12]): 160 µg/mL (≈ 686 µM); MIC (Bacillus subtilis [14]): 160 µg/mL (≈ 686 µM)
15 | CC1=C(C(=O)O)N2C(=O)[C@@H](NC(=O)[C@H](N)C3=CCC=CC3)[C@H]2SC1 [Cephradine, reference compound] |  |  |  |  |  |  |  |  |  | MIC (Staphylococcus aureus [11]): > 400 µg/mL; MIC (Pseudomonas aeruginosa [12]): > 400 µg/mL; MIC (Klebsiella pneumonia [13]): > 400 µg/mL; MIC (Bacillus subtilis [14]): 320 µg/mL (≈ 916 µM)
16 | Cc1ccc(S(=O)(=O)NC(=O)NC23CC4CC(CC(C4)C2)C3)cc1 [Compound 13, N-(adamantan-1-ylcarbamoyl)-4-methylbenzenesulfonamide] | 2 | 3 | 2 | 6 |  |  |  |  | 3 | IC50 [1]: 62.4 ± 0.128 µM; cytotoxicity at 100 µM [1]: ≥ 51%; cytotoxicity at 48 h, 100 µM (MTT cytotoxicity assay): 2.7%; IC50 [2]: 43.5 ± 0.15 µM; cytotoxicity at 100 µM [2]: ≥ 65%; early apoptosis (MCF-7 cells): 2.24%; late apoptosis (MCF-7 cells): 0.58%; early apoptosis (HCT-116 cells): 45.07%; late apoptosis (HCT-116 cells): 0.42%
